Test system: animal pole explants of Xenopus embryos
Assay: Neural induction assay by Noggin in animal pole explants (RT-PCR)
Set-up: species or system Xenopus laevis
Conditions: co-injected with Tmem79MO
Method: mRNA and Morpholino injection. For animal cap assays, indicated mRNAs (Tmem79, 100 and 200 pg; Xwnt8, 10 pg; β-catenin 50 pg; Xnr1, 250 pg; BMP4, 100 pg) were injected into the animal pole at 4-cell stage, and animal caps were dissected at stage 9 (in the case of Xwnt8, Xnr1, BMP4) or at stage 8.5 and treated with recombinant proteins (bFGF, 100 ng/ml; hShh, 1.5 ng/mL) until stage 10 before RT-PCR. For Neural induction assay the MO (20 ng) for Tmem79, Usp8 or β-catenin was injected into the animal pole at 4-cell stage, and animal caps were dissected at stage 9 and treated with recombinant protein Noggin (500 ng/mL) until stage 18 before RT-PCR. To examine Tmem79 and Usp8 MOs specificity, […] of mRNA of Xenopus Tmem79, mouse Tmem79, Xenopus Usp8 or xmutUsp8 (Xenopus Usp8 mutated for mismatches with the MO) were injected with a control MO, Tmem79 MO or Usp8 MO (20 ng) into the animal pole at the 2-cell stage and cultured til stage 10 for Western blotting. To knockdown the endogenous xTmem79 or xUsp8, 20 ng of control MO, Tmem79 MO or Usp8 MO were injected into two dorso-animal blastomeres at the 8-cell stage and the phenotype was scored at stage 35. To rescue the Tmem79 MO phenotype, […] of mTmem 79, 20 ng of Usp8 MO or 10 ng of β-catenin MO was injected together with Tmem79 MO (20 ng). RT-PCR primers and Morpholinos. […]

Usp8 MO: morpholino against Xenopus Usp8, SEQ ID NO: 26 (antisense GCTGCAAATTCTCCTCTCTTATCAA; all phosphorodiamidate morpholino (PMO); listed as Xenopus laevis)
neural induction by Noggin abolished by Tmem79MO: effect of co-injection: rescued
